Several values for one entry are separate records, joined by “and”; a condition that tells them apart may be missing. Identical values can stand only once.
Legend:
NRAS Q61R = NRAS Q61R (Homo sapiens (Human), UniProt P01111+P62937, Q61R); assay: Ras-Raf (BRAF RBD) disruption / FRET / MOA assay, NRAS Q61R; assay type: biochemical; conditions: NRAS Q61R; Ras-Raf disruption/FRET/MOA assay; read-out: IC50* NRAS Q61R FRET data
Experimental: (§1) The purpose of this biochemical assay is to measure the ability of test compounds to facilitate ternary complex formation between a nucleotide-loaded Ras isoform and cyclophilin A; the resulting ternary complex disrupts binding to a BRAF^RBD construct, inhibiting Ras signaling through a RAF effector.
(§2) […]. Compound is present in plate wells as a 10-point 3-fold dilution series starting at a final concentration of 30 μM. After incubation at 25° C. for 3 hours, a mixture of Anti-His Eu-W1024 and anti-GST allophycocyanin is then added to assay sample wells at final concentrations of 10 nM and 50 nM, respectively, and the reaction incubated for an additional 1.5 hours. […] Compounds that facilitate disruption of a Ras:RAF complex are identified as those eliciting a decrease in the TR-FRET ratio relative to DMSO control wells.
(§3) Note—The following protocol describes a procedure for monitoring disruption of K-Ras G12C (GMP-PNP) binding to BRAF^RBD by a compound of the invention. This protocol may also be executed substituting other Ras proteins or nucleotides.
(§4) The purpose of this biochemical assay was to measure the ability of test compounds to facilitate ternary complex formation between a nucleotide-loaded K-Ras isoform and Cyclophilin A; the resulting ternary complex disrupts binding to a BRAF^RBD construct, inhibiting K-Ras signaling through a RAF effector. Data is reported as IC50 values.
(§5) […]. Compound was present in plate wells as a 10-point 3-fold dilution series starting at a final concentration of 30 μM. After incubation at 25° C. for 3 hours, a mixture of Anti-His Eu-W1024 and anti-GST allophycocyanin was then added to assay sample wells at final concentrations of 10 nM and 50 nM, respectively, and the reaction incubated for an additional 1.5 hours. […] Compounds that facilitate disruption of a K-Ras:RAF complex were identified as those eliciting a decrease in the TR-FRET ratio relative to DMSO control wells.

[1] = test system: NCI-H358 cells (K-Ras G12C); assay: Potency assay: pERK in NCI-H358 cells; assay type: cell-based, human; conditions: Homo sapiens, NCI-H358; H358 KRAS G12C; read-out: pERK EC50
Outline: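 Compounds are dosed as ten 3-fold dilutions from a 10 mM DMSO stock, in duplicate, and left on cells for 4 h at 37 °C, 5% CO2. Phospho-ERK1/2 is then quantified by AlphaLISA SureFire Ultra or In-Cell Western, and IC50 is derived from a 4-parameter sigmoid against log concentration.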

NRAS WT = NRAS WT (Homo sapiens (Human), UniProt P01111+P62937); assay: Ras-Raf (BRAF RBD) disruption / FRET / MOA assay, NRAS WT; assay type: biochemical; conditions: read-out: IC50* NRAS WT FRET data
Chain of NRAS WT (P01111 whole entry): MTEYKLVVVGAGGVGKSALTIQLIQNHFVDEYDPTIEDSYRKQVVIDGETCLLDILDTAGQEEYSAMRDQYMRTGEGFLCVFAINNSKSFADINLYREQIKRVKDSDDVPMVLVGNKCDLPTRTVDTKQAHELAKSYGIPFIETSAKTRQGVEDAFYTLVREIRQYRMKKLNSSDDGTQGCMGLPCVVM
Chain of NRAS WT (P62937 whole entry): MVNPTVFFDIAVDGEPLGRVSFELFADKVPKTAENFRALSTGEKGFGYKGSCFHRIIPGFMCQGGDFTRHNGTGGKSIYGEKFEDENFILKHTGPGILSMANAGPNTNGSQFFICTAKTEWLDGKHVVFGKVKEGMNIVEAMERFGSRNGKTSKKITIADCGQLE
Experimental: as §1, §2, §3, §4, §5

KRAS Q61H = KRAS Q61H (Homo sapiens (Human), UniProt P01116+P62937, Q61H); assay: Ras-Raf (BRAF RBD) disruption / FRET / MOA assay, KRAS Q61H; assay type: biochemical; conditions: Ras-Raf disruption/FRET/MOA assay; class symbols; read-out: KRAS Q61H FRET data IC50
Chain of KRAS Q61H (P01116-2 other isoform, or with tags, fused parts or gaps Q61H): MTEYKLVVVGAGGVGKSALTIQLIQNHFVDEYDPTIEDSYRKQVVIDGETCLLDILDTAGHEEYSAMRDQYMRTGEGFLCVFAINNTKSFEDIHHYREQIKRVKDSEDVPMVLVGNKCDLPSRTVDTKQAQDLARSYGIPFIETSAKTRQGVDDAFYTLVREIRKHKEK
Chain of KRAS Q61H (P62937 whole entry): as the sequence (P62937 whole entry) above
Outline: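 Compounds (30 μM top final, 10-point 3-fold dilutions) incubated 3 h at 25° C with nucleotide-loaded Ras, cyclophilin A and BRAF RBD. Detection with 10 nM anti-His Eu-W1024 and 50 nM anti-GST allophycocyanin over another 1.5 h. Lowered TR-FRET ratio relative to DMSO wells gives IC50.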

KRAS WT = KRAS WT (Homo sapiens (Human), UniProt P01116+P62937); assay: Ras-Raf (BRAF RBD) disruption / FRET / MOA assay, KRAS WT; assay type: biochemical; conditions: read-out: IC50* KRAS WT FRET data
Chain of KRAS WT (P01116-2 other isoform, or with tags, fused parts or gaps): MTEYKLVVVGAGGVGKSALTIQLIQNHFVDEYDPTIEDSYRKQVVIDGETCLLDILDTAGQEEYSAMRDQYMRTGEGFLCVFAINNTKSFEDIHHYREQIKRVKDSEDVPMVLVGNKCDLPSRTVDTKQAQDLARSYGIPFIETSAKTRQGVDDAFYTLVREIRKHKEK
Chain of KRAS WT (P62937 whole entry): as the sequence (P62937 whole entry) above
Outline: (§6)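 Compound-driven ternary complex of nucleotide-loaded Ras with cyclophilin A, disrupting BRAF RBD binding. 10-point 3-fold dilution from 30 μM final, 3 h at 25° C, then anti-His Eu-W1024 (10 nM) and anti-GST allophycocyanin (50 nM) for 1.5 h. IC50 from TR-FRET ratio decrease versus DMSO.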

KRAS G12V = KRAS G12V (Homo sapiens (Human), UniProt P01116+P62937, G12V); assay: Ras-Raf (BRAF RBD) disruption / FRET / MOA assay, KRAS G12V; assay type: biochemical; conditions: read-out: IC50* KRAS G12V FRET data
Chain of KRAS G12V (P01116-2 other isoform, or with tags, fused parts or gaps G12V): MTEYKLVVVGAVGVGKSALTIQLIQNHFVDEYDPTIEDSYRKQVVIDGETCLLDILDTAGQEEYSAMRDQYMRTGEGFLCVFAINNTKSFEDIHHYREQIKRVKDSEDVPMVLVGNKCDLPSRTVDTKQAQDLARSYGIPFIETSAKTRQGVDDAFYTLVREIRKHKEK
Chain of KRAS G12V (P62937 whole entry): as the sequence (P62937 whole entry) above
Outline: as §6

K-Ras G13C = K-Ras G13C (Homo sapiens (Human), UniProt P01116+P62937, G13C); assay: Ras-Raf (BRAF RBD) disruption / FRET / MOA assay, KRAS G13C; assay type: biochemical; conditions: KRAS G13C; Ras-Raf disruption/FRET/MOA assay; read-out: IC50* KRAS G13C FRET data
Chain of K-Ras G13C (P01116-2 other isoform, or with tags, fused parts or gaps G13C): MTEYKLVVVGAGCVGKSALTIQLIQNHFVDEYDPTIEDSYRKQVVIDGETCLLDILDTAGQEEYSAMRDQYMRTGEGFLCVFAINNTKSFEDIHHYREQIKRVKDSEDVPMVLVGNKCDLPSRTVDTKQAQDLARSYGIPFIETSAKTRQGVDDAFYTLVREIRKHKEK
Chain of K-Ras G13C (P62937 whole entry): as the sequence (P62937 whole entry) above
Outline: as §6

NRAS Q61K = NRAS Q61K (Homo sapiens (Human), UniProt P01111+P62937, Q61K); assay: Ras-Raf (BRAF RBD) disruption / FRET / MOA assay, NRAS Q61K; assay type: biochemical; conditions: NRAS Q61K; Ras-Raf disruption/FRET/MOA assay; read-out: IC50* NRAS Q61K FRET data
Chain of NRAS Q61K (P01111 whole entry Q61K): as the sequence (P01111 whole entry) above, with Q61K counted along it
Chain of NRAS Q61K (P62937 whole entry): as the sequence (P62937 whole entry) above
Experimental: as §1, §2, §3, §4, §5

KRAS G13D = KRAS G13D (Homo sapiens (Human), UniProt P01116+P62937, G13D); assay: Ras-Raf (BRAF RBD) disruption / FRET / MOA assay, KRAS G13D; assay type: biochemical; conditions: read-out: IC50* KRAS G13D FRET data
Chain of KRAS G13D (P01116-2 other isoform, or with tags, fused parts or gaps G13D): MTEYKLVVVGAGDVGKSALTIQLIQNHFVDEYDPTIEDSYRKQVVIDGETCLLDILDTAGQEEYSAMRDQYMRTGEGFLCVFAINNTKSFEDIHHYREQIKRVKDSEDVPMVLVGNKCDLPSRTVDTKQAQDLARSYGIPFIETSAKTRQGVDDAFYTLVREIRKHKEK
Chain of KRAS G13D (P62937 whole entry): as the sequence (P62937 whole entry) above
Outline: as §6

K-Ras G12C = K-Ras G12C (Homo sapiens (Human), UniProt P01116+P62937, G12C); assay: Ras-Raf (BRAF RBD) disruption / FRET / MOA assay, KRAS G12C; assay type: biochemical; conditions: KRAS G12C; Ras-Raf disruption/FRET/MOA assay; read-out: IC50* KRAS G12C FRET data
Chain of K-Ras G12C (P01116-2 other isoform, or with tags, fused parts or gaps G12C): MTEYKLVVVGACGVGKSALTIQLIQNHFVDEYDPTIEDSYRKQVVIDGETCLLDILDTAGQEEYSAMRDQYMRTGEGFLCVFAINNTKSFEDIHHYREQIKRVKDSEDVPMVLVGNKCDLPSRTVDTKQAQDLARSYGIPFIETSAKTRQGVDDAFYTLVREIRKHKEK
Chain of K-Ras G12C (P62937 whole entry): as the sequence (P62937 whole entry) above
Outline: as §6

KRAS G12D = KRAS G12D (Homo sapiens (Human), UniProt P01116+P62937, G12D); assay: Ras-Raf (BRAF RBD) disruption / FRET / MOA assay, KRAS G12D; assay type: biochemical; conditions: Ras-Raf disruption/FRET/MOA assay; class symbols; read-out: KRAS G12D FRET data IC50
Chain of KRAS G12D (P01116-2 other isoform, or with tags, fused parts or gaps G12D): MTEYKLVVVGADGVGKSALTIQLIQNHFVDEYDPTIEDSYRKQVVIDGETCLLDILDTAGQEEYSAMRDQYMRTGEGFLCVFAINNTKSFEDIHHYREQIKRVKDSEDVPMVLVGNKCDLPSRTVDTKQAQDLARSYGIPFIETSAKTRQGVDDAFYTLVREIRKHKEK
Chain of KRAS G12D (P62937 whole entry): as the sequence (P62937 whole entry) above
Outline: as §6

KRAS G12S = KRAS G12S (Homo sapiens (Human), UniProt P01116+P62937, G12S); assay: Ras-Raf (BRAF RBD) disruption / FRET / MOA assay, KRAS G12S; assay type: biochemical; conditions: Ras-Raf disruption/FRET/MOA assay; class symbols; read-out: KRAS G12S FRET data IC50
Chain of KRAS G12S (P01116-2 other isoform, or with tags, fused parts or gaps G12S): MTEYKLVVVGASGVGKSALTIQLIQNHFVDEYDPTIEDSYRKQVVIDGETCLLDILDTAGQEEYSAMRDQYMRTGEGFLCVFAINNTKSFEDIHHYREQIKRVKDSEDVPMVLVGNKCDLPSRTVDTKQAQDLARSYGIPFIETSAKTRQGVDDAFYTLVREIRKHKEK
Chain of KRAS G12S (P62937 whole entry): as the sequence (P62937 whole entry) above
Outline: as §6

NRAS G12C = NRAS G12C (Homo sapiens (Human), UniProt P01111+P62937, G12C); assay: Ras-Raf (BRAF RBD) disruption / FRET / MOA assay, NRAS G12C; assay type: biochemical; conditions: read-out: IC50* NRAS G12C FRET data
Chain of NRAS G12C (P01111 whole entry G12C): as the sequence (P01111 whole entry) above, with G12C counted along it
Chain of NRAS G12C (P62937 whole entry): as the sequence (P62937 whole entry) above
Outline: as §6

Chain of NRAS Q61R (P01111 whole entry Q61R, canonical isoform): as the sequence (P01111 whole entry) above, with Q61R counted along it
Chain of NRAS Q61R (P62937 whole entry, canonical isoform): as the sequence (P62937 whole entry) above

SMILES | IC50 (NRAS Q61R) | EC50 [1] | IC50 (NRAS WT) | IC50 (KRAS Q61H) | IC50 (KRAS WT) | IC50 (KRAS G12V) | IC50 (K-Ras G13C) | IC50 (NRAS Q61K) | IC50 (KRAS G13D) | IC50 (K-Ras G12C) | IC50 (KRAS G12D) | IC50 (KRAS G12S) | IC50 (NRAS G12C)
CO[C@@H](C)c1ncccc1-c1c2c3cc(ccc3n1CC(F)(F)F)-c1cc(cc(C(F)F)c1)C[C@H](NC(=O)[C@H](C(C)C)N(C)C(=O)[C@H]1CCN(C(=O)C#CC(C)(C)N3CCC3)C1)C(=O)N1CCC[C@H](N1)C(=O)OCC(C)(C)C2 (atropisomer, axis not shown) [Example A370] | 1000 to 10000 nM | < 5000 nM | 1000 to 10000 nM | 1000 to 10000 nM | 1000 to 10000 nM | 1000 to 10000 nM | 100 to 1000 nM | 1000 to 10000 nM | 1000 to 10000 nM | 10 to 100 nM | 1000 to 10000 nM | 1000 to 10000 nM | 10 to 100 nM
C=CC(=O)N1CC[C@H](C(=O)N(C)[C@H](C(=O)N[C@H]2C[C@H]3CN(CCO3)c3ccc4c(c3)c(c(-c3cccnc3[C@H](C)OC)n4CC)CC(C)(C)COC(=O)[C@@H]3CCCN(N3)C2=O)C(C)C)C1 (atropisomer, axis not shown) [Example A378] | > 10000 nM | < 5000 nM | 1000 to 10000 nM | > 10000 nM | 1000 to 10000 nM | 1000 to 10000 nM | 1000 to 10000 nM | > 10000 nM | > 10000 nM | 100 to 1000 nM | > 10000 nM | 1000 to 10000 nM | 100 to 1000 nM
C=CC(=O)N1CC[C@H](C(=O)N(C)[C@H](C(=O)N[C@H]2Cc3nc(cs3)-c3ccc4c(n3)c(c(-c3cccnc3[C@H](C)OC)n4CC)CC(C)(C)COC(=O)[C@@H]3CCCN(N3)C2=O)C(C)C)C1 [Example A347, (2S)-N-[(7S,13S)-21-ethyl-20-{2-[(1S)-1-methoxyethyl]pyridin-3-yl}-17,17-dimethyl-8,14-dioxo-15-oxa-4-thia-9,21,25,27,28-pentaazapentacyclo[17.5.2.1^{2,5}.1^{9,13}.0^{22,26}]octacosa-1(25),2,5(28),19,22(26),23-hexaen-7-yl]-3-methyl-2-{N-methyl-1-[(3S)-1-(prop-2-enoyl)pyrrolidin-3-yl]formamido}butanamide] | 1000 to 10000 nM | < 5000 nM | 1000 to 10000 nM | 1000 to 10000 nM | 1000 to 10000 nM | > 10000 nM | 1000 to 10000 nM | 1000 to 10000 nM | > 10000 nM | 100 to 1000 nM | > 10000 nM | 1000 to 10000 nM | 100 to 1000 nM
CCn1c(-c2cccnc2[C@H](C)OC)c2c3cc(ccc31)-c1cccc(c1)C[C@H](NC(=O)[C@H](C(C)C)N(C)C(=O)C1(F)CCN(C(=O)C#CC(C)(C)N(C)C)CC1)C(=O)N1CCC[C@H](N1)C(=O)OCC(C)(C)C2 (atropisomer, axis not shown) [Example A699] | 100 to 1000 nM | < 5000 nM | 100 to 1000 nM | 100 to 1000 nM | 100 to 1000 nM | 100 to 1000 nM | 10 to 100 nM | 100 to 1000 nM | 100 to 1000 nM | < 10 nM | 1000 to 10000 nM | 100 to 1000 nM | < 10 nM
CCn1c(-c2cccnc2[C@H](C)OC)c2c3cc(ccc31)-c1cccc(c1)C[C@H](NC(=O)[C@H](C1CCCC1)N(C)C(=O)[C@@H]1CN(C(=O)C#CC(C)(C)N(C)C)C[C@@H]1C)C(=O)N1CCC[C@H](N1)C(=O)OCC(C)(C)C2 (atropisomer, axis not shown) [Example A391] | 1000 to 10000 nM | < 5000 nM | 1000 to 10000 nM | 1000 to 10000 nM | 1000 to 10000 nM | 1000 to 10000 nM | 1000 to 10000 nM | 1000 to 10000 nM | 1000 to 10000 nM | < 10 nM | > 10000 nM | 1000 to 10000 nM | < 10 nM
CO[C@@H](C)c1ncccc1-c1c2c3cc(ccc3n1CC(F)(F)F)-c1csc(n1)C[C@H](NC(=O)[C@H](C(C)C)N(C)C(=O)N1C[C@@H]3OCCN(C(=O)/C=C/C(F)F)[C@@H]3C1)C(=O)N1CCC[C@H](N1)C(=O)OCC(C)(C)C2 (atropisomer, axis not shown) [Example A572] | 100 to 1000 nM | < 5000 nM | 100 to 1000 nM | 100 to 1000 nM | 100 to 1000 nM | 100 to 1000 nM | 10 to 100 nM | 100 to 1000 nM | 1000 to 10000 nM | 10 to 100 nM | 1000 to 10000 nM | 100 to 1000 nM | 10 to 100 nM
C=CC(=O)N1CC[C@H](C(=O)N(C)[C@H](C(=O)N[C@H]2Cc3cccc(c3)-c3ccc4c(c3)c(c(-c3cc(N5CCN(C)CC5)cnc3[C@H](C)OC)n4CC)CC(C)(C)COC(=O)[C@@H]3CCCN(N3)C2=O)C(C)C)C1 (single isomer, unassigned) [Example A328] | 1000 to 10000 nM | < 5000 nM | 1000 to 10000 nM | 100 to 1000 nM | 1000 to 10000 nM and > 10000 nM | 1000 to 10000 nM and > 10000 nM | 100 to 1000 nM and > 10000 nM | 1000 to 10000 nM | 1000 to 10000 nM and > 10000 nM | 10 to 100 nM and 1000 to 10000 nM | 1000 to 10000 nM and > 10000 nM | 100 to 1000 nM and > 10000 nM | 10 to 100 nM and 1000 to 10000 nM

— patent US11566007B2, “Ras inhibitors” (Revolution Medicines, Inc., priority 2019, dated 2023)
